This note sets out measurements from publication PMC9929129, “Towards Translation of PqsR Inverse Agonists: From In Vitro Efficacy Optimization to In Vivo Proof‐of‐Principle” (Advanced Science, 2023).

Usually inhibition stands for the change of the read-out against control, counted positive when it falls.

Structures are written as SMILES.

One assay concerns PA14 biofilm. Briefly: Biofilm-formation assay (Calgary biofilm device). In kind it is cell-based, Pseudomonas aeruginosa. Conditions: 24 present from the beginning or added 8 h after onset of biofilm growth; CFU after 48 h. The method, then: MA, USA) instrument parameters: Spray voltage 3500 V, vaporizer temperature 370 °C, sheath gas pressure 35 psi, aux gas pressure 30 psi, capillary temperature 270 °C, collision pressure 1.5 mTorr, positive ionization mode. For AQ analyte reaction monitoring parameters please see Table S1.
Table S1. LC-ESI-MS/MS reaction monitoring parameters of AQ analytes in positive ionization mode. precursor product ion collision tube lens retention ion m/z m/z energy (V) offset (V) time (min)
1.2.4 Biofilm-formation assay
Biofilm formation was determined using a MBEC Assay® Biofilm Inoculator with 96-well base (Innvotech, Edmonton, CA). An overnight culture of PA14 was centrifuged (10 min, 5000 x g). The supernatant including extracellular polymers was removed and the pellet washed with 10 mL of LB medium. Centrifugation was repeated, the supernatant discarded, and the pellet resuspended in 5 mL of LB. OD was adjusted to 0.2. The bacteria were further diluted in LB medium, followed by addition of the target compound or DMSO control to give OD 0.1 and 1% DMSO. 150 µL were added to each well of the 96-well plate. The outer wells were used as blanks containing 150 µL of 1% DMSO in LB. Six replicates per sample were distributed evenly across the plate, with every row containing one replicate of each sample. […]
Statistical outliers were determined using the Nalimov test, applying a 95% cut-off. […]

The next assay deals with T1, 5-HT transporter (h) (Homo sapiens, UniProt P31645).
T1 construct: purchased Eurofins Pharma Discovery (Cerep) SafetyScreen44 Panel, ITEM P270
As to the kind of experiment: Cerep panel binding assay. Conditions: antagonist radioligand. The protocol: (§1) 1.4 Safety Pharmacology of Compound 24
(§2) 1.4.1 Cerep panel (Eurofins)
(§3) Compound 24 was further profiled for its off-target interactions against a panel of 44 targets. The
(§4) screening was done by Eurofins Pharma Discovery within the SafetyScreen44 Panel (Cerep, ITEM
(§5) P270). In all assays binding/functional inhibition was determined at 10 µM.
(§6) Table S6. […]

In a further assay the target is T2, 5-HT1A (h) (Homo sapiens, UniProt P08908).
T2 construct: purchased Eurofins Pharma Discovery (Cerep) SafetyScreen44 Panel, ITEM P270
T2 sequence (P08908 whole entry): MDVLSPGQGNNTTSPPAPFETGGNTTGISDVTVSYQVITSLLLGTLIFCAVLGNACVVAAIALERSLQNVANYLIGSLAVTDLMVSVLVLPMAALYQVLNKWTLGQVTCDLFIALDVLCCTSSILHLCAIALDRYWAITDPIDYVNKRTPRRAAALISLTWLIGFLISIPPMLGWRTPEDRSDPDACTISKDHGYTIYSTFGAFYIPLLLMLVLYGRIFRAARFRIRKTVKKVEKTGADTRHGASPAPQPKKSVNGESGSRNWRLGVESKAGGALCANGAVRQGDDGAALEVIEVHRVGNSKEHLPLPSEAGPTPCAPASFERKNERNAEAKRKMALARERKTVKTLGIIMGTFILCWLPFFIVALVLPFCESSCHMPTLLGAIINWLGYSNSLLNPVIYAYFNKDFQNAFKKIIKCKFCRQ
As to the kind of experiment: Cerep panel binding assay. Conditions: agonist radioligand. The protocol:
as §1, §2, §3, §4, §5, §6

The target of another assay is T3, 5-HT1B (h) (Homo sapiens, UniProt P28222).
T3 construct: Eurofins Pharma Discovery (CRO that ran the assay) SafetyScreen44 Panel (Cerep, ITEM P270)
Briefly: Cerep panel binding assay. Conditions: antagonist radioligand. The protocol: as §1, §2, §3, §4, §5, §6

A further assay has as its target T4, 5-HT2A (h) (Homo sapiens, UniProt P28223).
T4 construct: Eurofins Pharma Discovery (CRO that ran the assay) SafetyScreen44 Panel (Cerep, ITEM P270)
Briefly: Cerep panel binding assay. Conditions: agonist radioligand. The protocol: as §1, §2, §3, §4, §5, §6

A further assay has as its target T5, 5-HT2B (h) (Homo sapiens, UniProt P41595).
T5 construct: purchased Eurofins Pharma Discovery (Cerep) SafetyScreen44 Panel, ITEM P270
As to the kind of experiment: Cerep panel binding assay. To be noted: agonist radioligand. The method, then: as §1, §2, §3, §4, §5, §6

A further assay addresses T6, A2A (h) (Homo sapiens, UniProt P29274).
T6 construct: Eurofins Pharma Discovery (CRO that ran the assay) SafetyScreen44 Panel (Cerep, ITEM P270)
Briefly: Cerep panel binding assay. Conditions: 10 µM, agonist radioligand. The method, then: as §1, §2, §3, §4, §5, §6

For the next assay, the target named is T7, CB1 (h) (Homo sapiens, UniProt P21554).
T7 construct: purchased Eurofins Pharma Discovery (Cerep) SafetyScreen44 Panel, ITEM P270
T7 sequence (P21554 whole entry): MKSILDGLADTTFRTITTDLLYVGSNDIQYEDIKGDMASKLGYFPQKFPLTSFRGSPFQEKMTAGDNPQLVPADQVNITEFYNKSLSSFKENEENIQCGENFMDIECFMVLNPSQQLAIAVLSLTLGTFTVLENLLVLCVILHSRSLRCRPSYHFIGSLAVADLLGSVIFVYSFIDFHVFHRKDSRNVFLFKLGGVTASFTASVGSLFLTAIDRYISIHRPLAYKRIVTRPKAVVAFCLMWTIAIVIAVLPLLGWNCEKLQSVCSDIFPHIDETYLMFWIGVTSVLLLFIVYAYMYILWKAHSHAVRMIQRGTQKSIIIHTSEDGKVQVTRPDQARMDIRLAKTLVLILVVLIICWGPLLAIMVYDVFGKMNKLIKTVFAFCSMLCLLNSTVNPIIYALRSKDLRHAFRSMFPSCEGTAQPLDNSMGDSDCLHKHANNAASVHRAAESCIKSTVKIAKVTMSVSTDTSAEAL
As to the kind of experiment: Cerep panel binding assay. Conditions: agonist radioligand. The method, then: as §1, §2, §3, §4, §5, §6

A further assay deals with T8, CCK1 (CCKA) (h) (Homo sapiens, UniProt P32238).
T8 construct: Eurofins Pharma Discovery (CRO that ran the assay) SafetyScreen44 Panel (Cerep, ITEM P270)
T8 sequence (P32238 whole entry): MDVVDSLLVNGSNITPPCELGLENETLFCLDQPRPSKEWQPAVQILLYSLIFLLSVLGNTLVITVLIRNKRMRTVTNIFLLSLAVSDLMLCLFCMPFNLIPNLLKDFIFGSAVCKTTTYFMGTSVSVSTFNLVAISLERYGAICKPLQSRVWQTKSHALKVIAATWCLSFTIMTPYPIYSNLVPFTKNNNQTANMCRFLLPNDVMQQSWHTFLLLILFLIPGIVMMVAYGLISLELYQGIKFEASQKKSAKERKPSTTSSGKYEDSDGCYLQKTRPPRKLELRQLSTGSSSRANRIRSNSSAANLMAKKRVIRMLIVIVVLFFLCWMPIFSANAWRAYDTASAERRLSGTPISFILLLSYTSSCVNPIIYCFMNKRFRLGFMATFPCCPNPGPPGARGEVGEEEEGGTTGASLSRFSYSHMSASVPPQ
As to the kind of experiment: Cerep panel binding assay. To be noted: agonist radioligand. The protocol:
as §1, §2, §3, §4, §5, §6

The next assay deals with T9, D2S (h) (Homo sapiens, UniProt P14416).
T9 construct: Eurofins Pharma Discovery (CRO that ran the assay) SafetyScreen44 Panel (Cerep, ITEM P270)
As to the kind of experiment: Cerep panel binding assay. Conditions: agonist radioligand. The method, then: as §1, §2, §3, §4, §5, §6

The target in another assay is T10, GR (h) (Homo sapiens, UniProt P04150).
T10 construct: purchased Eurofins Pharma Discovery (Cerep) SafetyScreen44 Panel, ITEM P270
T10 sequence (P04150 whole entry): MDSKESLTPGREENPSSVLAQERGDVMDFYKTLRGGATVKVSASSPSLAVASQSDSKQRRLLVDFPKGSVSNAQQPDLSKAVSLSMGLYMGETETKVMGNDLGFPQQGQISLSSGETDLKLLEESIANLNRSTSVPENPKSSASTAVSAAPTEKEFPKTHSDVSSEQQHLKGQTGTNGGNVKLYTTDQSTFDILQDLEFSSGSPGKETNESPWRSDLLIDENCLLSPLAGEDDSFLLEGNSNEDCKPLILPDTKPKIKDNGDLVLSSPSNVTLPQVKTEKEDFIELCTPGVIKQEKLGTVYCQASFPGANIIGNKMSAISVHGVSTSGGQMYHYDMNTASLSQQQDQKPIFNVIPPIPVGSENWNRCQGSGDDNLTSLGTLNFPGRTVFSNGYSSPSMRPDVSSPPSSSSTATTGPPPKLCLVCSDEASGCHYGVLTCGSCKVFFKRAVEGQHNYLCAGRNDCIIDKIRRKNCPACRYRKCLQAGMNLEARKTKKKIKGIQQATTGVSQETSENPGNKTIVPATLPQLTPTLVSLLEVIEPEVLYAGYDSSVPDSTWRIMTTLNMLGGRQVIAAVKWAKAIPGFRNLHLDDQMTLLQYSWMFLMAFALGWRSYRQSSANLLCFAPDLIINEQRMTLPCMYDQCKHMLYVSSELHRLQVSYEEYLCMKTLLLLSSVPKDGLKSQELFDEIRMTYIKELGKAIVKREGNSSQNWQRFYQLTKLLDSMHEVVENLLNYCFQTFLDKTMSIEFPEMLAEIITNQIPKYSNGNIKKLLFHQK
Briefly: Cerep panel binding assay. Conditions: agonist radioligand. The method, then:
as §1, §2, §3, §4, §5, §6

In another assay the target is T11, H2 (h) (Homo sapiens, UniProt P25021).
T11 construct: Eurofins Pharma Discovery (CRO that ran the assay) SafetyScreen44 Panel (Cerep, ITEM P270)
T11 sequence (P25021 whole entry): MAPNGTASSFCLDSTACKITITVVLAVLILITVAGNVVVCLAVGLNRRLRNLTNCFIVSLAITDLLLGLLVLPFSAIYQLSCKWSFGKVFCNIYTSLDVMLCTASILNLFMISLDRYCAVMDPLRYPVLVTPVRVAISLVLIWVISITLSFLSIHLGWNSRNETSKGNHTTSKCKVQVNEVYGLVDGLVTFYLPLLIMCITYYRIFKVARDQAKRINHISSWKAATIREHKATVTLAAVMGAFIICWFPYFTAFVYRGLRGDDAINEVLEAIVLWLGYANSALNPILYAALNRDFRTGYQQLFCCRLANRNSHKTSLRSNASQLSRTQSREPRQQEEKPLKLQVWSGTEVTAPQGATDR
As to the kind of experiment: Cerep panel binding assay. Conditions: antagonist radioligand. The method, then:
as §1, §2, §3, §4, §5, §6

The subject of another assay is KV channel. As to the kind of experiment: Cerep panel binding assay. To be noted: 10 µM, antagonist radioligand. The protocol: as §1, §2, §3, §4, §5, §6
A further assay has as its target T12, MAO-A (Rattus norvegicus, UniProt P21396).
T12 construct: purchased Eurofins Pharma Discovery (Cerep) SafetyScreen44 Panel, ITEM P270
Briefly: Cerep panel binding assay. Conditions: antagonist radioligand. The protocol: as §1, §2, §3, §4, §5, §6

Assay [1] deals with T13, N neuronal alpha4beta2 (h) (Homo sapiens, UniProt P17787+P43681).
T13 construct: Eurofins Pharma Discovery (CRO that ran the assay) SafetyScreen44 Panel (Cerep, ITEM P270)
T13 sequence (P43681 29-627 limits assumed): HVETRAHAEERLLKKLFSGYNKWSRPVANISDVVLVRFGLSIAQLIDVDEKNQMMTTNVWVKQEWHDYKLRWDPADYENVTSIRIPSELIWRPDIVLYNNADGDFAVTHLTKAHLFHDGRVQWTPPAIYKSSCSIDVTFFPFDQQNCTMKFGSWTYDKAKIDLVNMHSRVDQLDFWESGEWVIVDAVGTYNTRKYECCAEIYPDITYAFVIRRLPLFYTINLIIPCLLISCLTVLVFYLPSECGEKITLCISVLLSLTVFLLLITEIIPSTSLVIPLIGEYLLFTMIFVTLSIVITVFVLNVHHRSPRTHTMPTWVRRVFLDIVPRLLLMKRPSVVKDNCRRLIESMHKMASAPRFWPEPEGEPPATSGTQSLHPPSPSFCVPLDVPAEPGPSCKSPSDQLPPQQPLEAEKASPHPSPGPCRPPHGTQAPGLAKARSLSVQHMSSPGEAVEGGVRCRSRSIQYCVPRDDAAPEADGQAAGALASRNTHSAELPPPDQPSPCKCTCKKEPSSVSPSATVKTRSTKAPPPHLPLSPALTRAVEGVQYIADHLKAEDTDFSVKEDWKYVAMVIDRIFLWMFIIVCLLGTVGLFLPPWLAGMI
T13 sequence (P17787 26-502): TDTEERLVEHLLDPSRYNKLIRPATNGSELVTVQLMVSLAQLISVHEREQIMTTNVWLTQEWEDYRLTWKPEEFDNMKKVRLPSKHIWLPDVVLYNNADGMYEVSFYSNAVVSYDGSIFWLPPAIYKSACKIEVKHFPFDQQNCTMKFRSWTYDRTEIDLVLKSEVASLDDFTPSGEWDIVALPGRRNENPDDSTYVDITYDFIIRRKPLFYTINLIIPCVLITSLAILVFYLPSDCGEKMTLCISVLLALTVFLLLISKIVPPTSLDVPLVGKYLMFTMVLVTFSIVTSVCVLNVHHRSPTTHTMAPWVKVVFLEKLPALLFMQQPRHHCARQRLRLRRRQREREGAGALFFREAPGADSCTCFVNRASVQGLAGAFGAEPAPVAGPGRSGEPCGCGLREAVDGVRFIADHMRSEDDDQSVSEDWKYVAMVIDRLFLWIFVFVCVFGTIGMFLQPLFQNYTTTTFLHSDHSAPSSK
Briefly: Cerep panel binding assay. To be noted: agonist radioligand. The method, then: as §1, §2, §3, §4, §5, §6

For the next assay, the system named is NMDA. Briefly: Cerep panel binding assay. Conditions: 10 µM, antagonist radioligand. The method, then: as §1, §2, §3, §4, §5, §6
The next assay addresses T14, alpha1A (h) (Homo sapiens, UniProt P35348).
T14 construct: purchased Eurofins Pharma Discovery (Cerep) SafetyScreen44 Panel, ITEM P270
As to the kind of experiment: Cerep panel binding assay. To be noted: antagonist radioligand. The method, then:
as §1, §2, §3, §4, §5, §6

The next assay has as its target T15, alpha2A (h) (Homo sapiens, UniProt P08913).
T15 construct: purchased Eurofins Pharma Discovery (Cerep) SafetyScreen44 Panel, ITEM P270
Briefly: Cerep panel binding assay. Conditions: antagonist radioligand. The protocol:
as §1, §2, §3, §4, §5, §6

For a further assay, the target named is T16, beta1 (h) (Homo sapiens, UniProt P08588).
T16 construct: purchased Eurofins Pharma Discovery (Cerep) SafetyScreen44 Panel, ITEM P270
As to the kind of experiment: Cerep panel binding assay. To be noted: agonist radioligand. The protocol: as §1, §2, §3, §4, §5, §6

The next assay concerns the target T17, beta2 (h) (Homo sapiens, UniProt P07550).
T17 construct: purchased Eurofins Pharma Discovery (Cerep) SafetyScreen44 Panel, ITEM P270
As to the kind of experiment: Cerep panel binding assay. To be noted: antagonist radioligand. The protocol: as §1, §2, §3, §4, §5, §6

The next assay concerns the target T18, delta (DOP) (h) (Homo sapiens, UniProt P41143).
T18 construct: purchased Eurofins Pharma Discovery (Cerep) SafetyScreen44 Panel, ITEM P270
Briefly: Cerep panel binding assay. To be noted: agonist radioligand. The protocol: as §1, §2, §3, §4, §5, §6

T17 sequence (P07550 whole entry): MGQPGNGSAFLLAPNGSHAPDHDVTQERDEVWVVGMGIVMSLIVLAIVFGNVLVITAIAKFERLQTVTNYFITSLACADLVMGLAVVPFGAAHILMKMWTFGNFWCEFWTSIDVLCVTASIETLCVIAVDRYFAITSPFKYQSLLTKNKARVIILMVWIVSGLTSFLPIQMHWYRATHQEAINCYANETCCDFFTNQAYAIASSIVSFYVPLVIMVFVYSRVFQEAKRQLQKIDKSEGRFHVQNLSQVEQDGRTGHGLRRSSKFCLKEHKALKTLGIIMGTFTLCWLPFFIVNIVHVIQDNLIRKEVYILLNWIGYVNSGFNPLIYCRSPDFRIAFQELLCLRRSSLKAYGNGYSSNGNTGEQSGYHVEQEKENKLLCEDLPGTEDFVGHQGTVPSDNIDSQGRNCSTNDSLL
T6 sequence (P29274 whole entry): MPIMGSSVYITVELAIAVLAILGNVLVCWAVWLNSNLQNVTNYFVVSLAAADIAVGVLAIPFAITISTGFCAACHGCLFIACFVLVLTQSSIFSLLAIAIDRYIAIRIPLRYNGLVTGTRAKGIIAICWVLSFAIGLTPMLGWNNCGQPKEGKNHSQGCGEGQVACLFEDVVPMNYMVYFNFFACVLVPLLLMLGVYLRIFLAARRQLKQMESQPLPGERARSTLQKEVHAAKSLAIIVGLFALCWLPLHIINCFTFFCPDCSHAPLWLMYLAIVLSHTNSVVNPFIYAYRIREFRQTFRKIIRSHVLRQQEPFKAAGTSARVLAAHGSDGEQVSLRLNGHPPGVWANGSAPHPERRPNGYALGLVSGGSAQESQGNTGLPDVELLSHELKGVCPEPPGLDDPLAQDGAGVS
T4 sequence (P28223 whole entry): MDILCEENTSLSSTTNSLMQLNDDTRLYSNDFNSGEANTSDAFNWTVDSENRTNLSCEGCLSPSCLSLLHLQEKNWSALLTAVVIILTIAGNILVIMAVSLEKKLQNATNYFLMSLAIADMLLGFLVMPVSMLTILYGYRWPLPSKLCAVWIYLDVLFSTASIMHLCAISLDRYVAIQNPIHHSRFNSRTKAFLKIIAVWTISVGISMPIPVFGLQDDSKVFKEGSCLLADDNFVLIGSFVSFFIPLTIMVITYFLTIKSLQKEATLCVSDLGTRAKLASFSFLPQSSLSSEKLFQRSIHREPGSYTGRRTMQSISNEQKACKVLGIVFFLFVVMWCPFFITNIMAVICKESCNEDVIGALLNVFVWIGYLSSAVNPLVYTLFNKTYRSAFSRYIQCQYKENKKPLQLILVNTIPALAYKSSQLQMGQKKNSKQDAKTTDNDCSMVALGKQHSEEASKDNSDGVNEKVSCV

Take `CC(C)Oc1ccc(-c2ncc(CNc3ccnc(C(F)(F)F)c3)cn2)cc1Cl` [Compound 24]: the “PA14 biofilm formation (CFU) compared to DMSO control” value in the assay with PA14 biofilm is on record as “significantly attenuates”. The inhibition at 10 µM at 5-HT transporter (h) was 49.8%; at 5-HT1A (h), 11.3%; at 5-HT1B (h), -6.7%; at 5-HT2A (h), -2.8%; on 5-HT2B (h), 62.2%; at CB1 (h) it was 16.3%. The inhibition at 10 µM on CCK1 (CCKA) (h) is -12%; at D2S (h) it was -0.6%; at GR (h) it was 16.2%; on H2 (h) it was -30%; at MAO-A it was 24.9%; in assay [1], -4.7%. The inhibition at 10 µM at alpha1A (h) came to 3.4%; at alpha2A (h), 8.4%; at beta1 (h), 7.1%; at beta2 (h) it was 7.9%; on delta (DOP) (h), 14.5%. Also, the “BINDING (%)” value was found to be 2.2% at A2A (h), 14.2% in the assay with KV channel and 0.9% with NMDA.
